Each block holds one compound with its values, some of them ahead of it.
Tests used:
[1] = target: porcine pancreatic secreted PLA2 (pps PLA2) (Sus scrofa, UniProt P00592); settings: reported activity data; cited from earlier work
[2] = target: human pancreatic secreted PLA2 (hps PLA2) (Homo sapiens, UniProt P04054); settings: reported activity data; cited from earlier work
Caco-2 cells = test: Caco-2 permeability study (Example 6B); type: in vitro ADME, human
Experimental: The culture medium was refreshed every 48 hours.

Stability at low pH = type: physicochemical; settings: predicted to survive passage through the stomach
[3] = test system: wild-type C57BL/6 mice on high fat/high sucrose diet; test: Serum cholesterol and triglycerides in mice on high fat/high sucrose diabetogenic diet (Example 5C); type: in vivo; settings: 10 weeks
Experimental: (§1) ILY-4001 (FIG. 2) was evaluated as a PLA2 IB inhibitor in a set of experiments using wild-type mice and genetically deficient PLA2 (−/−) mice (also referred to herein as PLA2 knock-out (KO) mice). In these experiments, wild-type and PLA2 (−/−) mice were maintained on a high fat/high sucrose diet, details of which are described below.
(§2) Briefly, four groups were set up, each having six mice. Three of the groups included six wild-type PLA2 (+/+) mice in each group (eighteen mice total), and one of the groups included six genetically deficient PLA2 (−/−) mice. One of the wild-type groups was used as a wild-type control group, and was not treated with ILY-4001. The other two wild-type groups were treated with ILY-4001—one group at a lower dose (indicated as “L” in Table 1) of 25 mg/kg/day, and the other at a higher dose (indicated as “H” in Table 1) of 90 mg/kg/day. The group comprising the PLA2 (−/−) mice was used as a positive control group.
(§3) The experimental protocol used in this study was as follows. The four groups of mice, including wild type and isogenic PLA2 (−/−) C57BL/J mice were acclimated for three days on a low fat/low carbohydrate diet. After the three day acclimation phase, the animals were fasted overnight and serum samples taken to establish baseline plasma cholesterol, triglyceride, and glucose levels, along with baseline body weight. The mice in each of the treatment groups were then fed a high fat/high sucrose diabetogenic diet (Research Diets D12331). 1000 g of the high fat/high sucrose D12331 diet was composed of casein (228 g), DL-methionine (2 g), maltodextrin 10 (170 g), sucrose (175 g), soybean oil (25 g), hydrogenated coconut oil (333.5 g), mineral mix S10001 (40 g), sodium bicarbonate (10.5 g), potassium citrate (4 g), vitamin mix V10001 (10 g), and choline bitartrate (2 g). This diet was supplemented with ILY-4001 treatments such that the average daily dose of the compound ingested by a 25 g mouse was: 0 mg/kg/day (wild-type control group and PLA2 (−/−) control group); 25 mg/kg/day (low-dose wild-type treatment group), or 90 mg/kg/day (high-dose wild-type treatment group). The animals were maintained on the high fat/high sucrose diet, with the designated ILY-4001 supplementation, for a period of ten weeks.
Body weight measurements were taken for all animals in all treatment and control groups at the beginning of the treatment period and at 4 weeks and 10 weeks after initiation of the study. (See Example 5A). Blood draws were also taken at the beginning of the treatment period (baseline) and at 4 weeks and 10 weeks after initiation of the study, in order to determine fasting glucose (See Example 5B). Cholesterol and triglyceride levels were determined from blood draws taken at the beginning of the treatement (baseline) and at ten weeks. […]

human PLA2 IB enzyme = human PLA2 IB enzyme (Homo sapiens, UniProt P04054); settings: pyrene substrate release from vesicles (Singer, Ghomashchi et al. 2002); read-out: IC50 versus the human PLA2 IB enzyme; cited from earlier work
Chain of human PLA2 IB enzyme (P04054 23-148): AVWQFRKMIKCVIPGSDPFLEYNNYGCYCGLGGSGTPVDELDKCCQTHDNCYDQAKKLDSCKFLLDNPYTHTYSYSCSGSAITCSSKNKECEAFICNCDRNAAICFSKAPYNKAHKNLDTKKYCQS

[4] = test system: wild-type C57BL/6 mice on high fat/high sucrose diet; test: Fasting serum glucose in mice on high fat/high sucrose diabetogenic diet (Example 5B); type: in vivo; settings: low dose 25 mg/kg/day (group 2)
Experimental: as §1, §2
The experimental protocol used in this study was as follows. […]
Body weight measurements were taken for all animals in all treatment and control groups at the beginning of the treatment period and at 4 weeks and 10 weeks after initiation of the study. […] Cholesterol and triglyceride levels were determined from blood draws taken at the beginning of the treatement (baseline) and at ten weeks. […]

[5] = test system: wild-type C57BL/6 mice on high fat/high sucrose diet; test: Body weight gain in mice on high fat/high sucrose diabetogenic diet (Example 5A); type: in vivo; settings: for body weight gain compared to the wild-type control group: week 4 and week 10
Experimental: as §1, §2, §3
Body weight measurements were taken for all animals in all treatment and control groups at the beginning of the treatment period and at 4 weeks and 10 weeks after initiation of the study. (See Example 5A). Blood draws were also taken at the beginning of the treatment period (baseline) and at 4 weeks and 10 weeks after initiation of the study, in order to determine fasting glucose (See Example 5B). Cholesterol and triglyceride levels were determined from blood draws taken at the beginning of the treatement (baseline) and at ten weeks. (See Example 5C).
In the study generally described above in Example 5, body weight measurements were taken for all animals in all treatment and control groups at the beginning of the treatment period and at 4 weeks and 10 weeks after initiation of the study.

[6] = Pharmokinetic study, bioavailability (Example 6C); type: in vivo, mice; settings: ORAL 30 mg/kg
Description: This example characterized ILY-4001 [2-(3-(2-amino-2-oxoacetyl)-1-(biphenyl-2-ylmethyl)-2-methyl-1H-indol-4-yloxy)acetic acid], alternatively referred to herein as methyl indoxam, with respect to activity, as determined by IC50 assay (Example 6A), with respect to cell absorbtion, as determined by in-vitro Caco-2 assay (Example 6B) and with respect to bioavailability, as determined using in-vivo mice studies (Example 6C).
This example evaluated the bioavailability of ILY-4001 [2-(3-(2-amino-2-oxoacetyl)-1-(biphenyl-2-ylmethyl)-2-methyl-1H-indol-4-yloxy)acetic acid], alternatively referred to herein as methyl indoxam. […]
Bioavailability was calculated as a ratio of AUC-oral/AUC-intravenous (IV). To determine this ratio, a first set of subject animals were given a measured intravenous (IV) dose of ILY-4001, followed by a determination of ILY-4001 levels in the blood at various time points after administration (e.g., 5 minutes through 24 hours). Another second set of animals was similarly dosed using oral administration, with blood levels of ILY-4001 determined at various time points after administration (e.g., 30 minutes through 24 hours). The level of ILY-4001 in systemic circulation were determined by generally accepted methods (for example as described in Evans, G., A Handbook of Bioanalysis and Drug Metabolism. Boca Raton, CRC Press (2004)). […]

mouse PLA2 IB enzyme = mouse PLA2 IB enzyme (Mus musculus, UniProt Q9Z0Y2); settings: pyrene substrate release from vesicles (Singer, Ghomashchi et al. 2002); read-out: IC50 versus the mouse PLA2 IB enzyme; cited from earlier work
Chain of mouse PLA2 IB enzyme (Q9Z0Y2 23-146): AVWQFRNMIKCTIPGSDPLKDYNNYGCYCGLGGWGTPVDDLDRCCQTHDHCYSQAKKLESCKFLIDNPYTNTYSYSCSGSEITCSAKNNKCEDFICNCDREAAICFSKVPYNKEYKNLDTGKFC

[7] = high dose 90 mg/kg/day (group 3)
[8] = low dose 25 mg/kg/day (group 2)

Chain of human pancreatic secreted PLA2 (hps PLA2) (P04054 23-148): as the sequence (P04054 23-148) above
Chain of porcine pancreatic secreted PLA2 (pps PLA2) (P00592 23-146): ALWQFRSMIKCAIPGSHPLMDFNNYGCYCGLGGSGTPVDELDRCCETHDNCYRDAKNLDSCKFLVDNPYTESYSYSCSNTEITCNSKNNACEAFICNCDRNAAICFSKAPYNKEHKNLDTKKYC

Compound: Cc1c(CC(=O)NN)c2cc(OCCCC(=O)O)ccc2n1Cc1ccccc1
IC50 pps PLA2 [1]: no activity
IC50 hps PLA2 [2]: no activity

apparent permeability (paracellular transport control) (Caco-2 cells; Caco-2): around 2.82×10^−7+/−0.37×10^−7 cm/s
Compound: Lucifer Yellow [reference compound]

Compound: Cc1c(C(=O)C(N)=O)c2c(OCC(=O)O)cccc2n1Cc1ccccc1-c1ccccc1 [ILY-4001, 2-(3-(2-amino-2-oxoacetyl)-1-(biphenyl-2-ylmethyl)-2-methyl-1H-indol-4-yloxy)acetic acid]
stability at low pH (Stability at low pH): stable at low pH
plasma levels of cholesterol [3, 7]: substantially reduced
plasma levels of triglycerides [3, 7]: substantially reduced
plasma levels of cholesterol [3, 8]: substantially reduced
plasma levels of triglycerides [3, 8]: substantially reduced
IC50 (human PLA2 IB enzyme): ~200 nM
fasting glucose levels ([4]; week four): moderately beneficial effect
fasting glucose levels ([4]; week ten): a beneficial effect was not observed
apparent permeability (Caco-2 cells; Caco-2 monolayers, apical to basolateral, 50 ug/ml): around 1.66×10^−7 cm/s
absorbtion from the GI lumen (Caco-2 cells; based on Caco-2 assays and pharmokinetic studies): relatively low absorbtion
body weight gain relative to PLA2 (−/−) mice ([5]; 25 mg/kg/d (low-dose) in diet, ten weeks): modulated to an extent comparable to that achieved in the PLA2 (−/−) mice
body weight gain relative to PLA2 (−/−) mice ([5]; 25 mg/kg/d in diet, four weeks): modulated to an extent approaching that achieved in the PLA2 (−/−) mice
body weight gain compared to the wild-type control group ([5]; 25 mg/kg/d in diet): significantly reduced body weight gains
body weight gain relative to PLA2 (−/−) mice ([5]; 90 mg/kg/d in diet, four weeks): modulated to an extent approaching that achieved in the PLA2 (−/−) mice
body weight gain compared to the wild-type control group ([5]; 90 mg/kg/d in diet): significantly reduced body weight gains
level of non-absorption from the GI tract into systemic circulation [6]: ~72%
IC50 (mouse PLA2 IB enzyme): ~150 nM

Compound: Cc1c(C(=O)C(N)=O)c2c(CCC(=O)O)cccc2n1Cc1ccccc1
IC50 [2]: > 100 µM

Compound: Cc1c(C(=O)C(N)=O)c2c(/C=C/C(=O)O)cccc2n1Cc1ccccc1
IC50 [2]: > 100 µM

— patent US20080051447A1, “Treatment Of Hypercholesterolemia, Hypertriglyceridemia And Cardiovascular-Related Conditions Using Phospholipase-A2 Inhibitors” (priority 2005, published 2008)
